Results reported in publication PMC11220654, “A Frog Skin‐Derived Peptide Targeting SCD1 Exerts Radioprotective Effects Against Skin Injury by Inhibiting STING‐Mediated Inflammation” (Advanced Science, 2024).
Residues, ends and D or L forms follow the SMILES beside them. No end group written: not given here. *: point of attachment. Cbz = O=C(OCc1ccccc1)*

Key:
[1] = system: TBK1 in HaCaT cells; test: TBK1 protein level and ubiquitination (Western blotting, IP); assay type: cell-based, human
Source text: Here, we further explored whether and how RIFSP‐2 decreased the protein level of TBK1 in HaCaT cells. […] Since the degradation of TBK1 protein was reported to be regulated by either ubiquitination mediated proteasome pathway^[ [33] ^] or chaperone‐mediated autophagy signaling,^[ [34] ^] we testified the influence of the protein synthesis inhibitor (CHX) and the proteasome inhibitor (MG132) in RIFSP‐2 treated HaCaT cells. […] Then we analyzed the colocalization of TBK1 and lysosomes through confocal immunofluorescence microscopy assays. Although, administration of RIFSP‐2 induced a transient decrease of TBK1 fluorescence intensity (Figure S5K,L, Supporting Information), the co‐localization assays didn't support the increase of TBK1 location in lysosomes in RIFSP‐2 treated HaCaT cells (Figure S5M, Supporting Information).
Fig. S5 Influence of RIFSP-2 on STING activation and TBK1 expression in HaCaT […]
Communities classified based on the association network of the different metabolites in irradiated cells treated with or without RIFSP -2. (B) Structural character analysis of the lipid metabolites in irradiated cells treated with or without RIFSP -2. (C) Dose dependent induction of phosphorylation of STING and downstream TBK1 detected through western blotting. […] (M) Pearson correlation coefficient was calculated through Image J to explore the colocalization between TBK1 and […]

[2] = system: WS1 cells; test: Intracellular uptake of FITC-labeled peptides (confocal microscopy, flow cytometry); assay type: cell-based
Source text: (§1) Distinct from previous reports, the RIFSPs were obtained from skin tissue crude extracts but not from skin secretions. In addition, the administration of exogenous RIFSPs protected cultured skin cells, which hints that some RIFSPs may exert membrane permeability. Therefore, we synthesized FITC‐labeled RIFSPs‐2/5/9/10 and evaluated their possible intracellular uptake by skin cells. […] Glycosaminoglycans have been reported to affect the efficiency of cellular uptake of a wide range of cell penetrating peptides,^[ [27] ^] and we therefore used the competitive inhibitor heparin to investigate whether internalization of FITC‐RIFSP‐2 was dependent on recognition by glycosaminoglycans on the cell surface.
After forming electrostatic interactions with the plasma membrane, peptides principally penetrate into cells via macropinocytosis.^[ [28] ^] […]
(A) Administration of FITC-labeled RIFSPs to WS1 cells and identification of the membrane […] of RIFSP-2 through confocal microscopy. (B)Time- and dose-dependent uptake of FITC-RIFSP-2 by WS1 cells detected through confocal microscopy and flow cytometry analysis. […] Conditioned medium from WS1 cells pretreated with RIFSP-2 increased MMP of irradiated HaCaT cells and vice versa, detected by JC-1(G and H) and Mito-Tracker Red CMXRos (I) staining (n = 4, ** P < 0.01).

[3] = system: HaCaT cells; test: as above; assay type: cell-based
Source text: as §1
Figure 2 Macropinocytosis‐mediated uptake of radiation‐induced frog skin peptide 2 (RIFSP‐2) protects skin cells against radiation‐induced injury. […] B) Time‐ and dose‐dependent uptake of FITC‐RIFSP‐2 by HaCaT cells detected through flow cytometry analysis. […] The effect of RIFSP‐2 on D) cell proliferation, E) cell cycle, and F,G) senescence, as detected by colony formation assay, propidium iodide (PI) staining and SA‐β‐Gal staining analysis, respectively. […] M) Effect of RIFSP‐2 on the homeostasis of actin filaments in irradiated skin cells, as detected by rhodamine phalloidin and G‐actin staining assays. […]

[4] = system: skin tissues of mice; details: mouse, in vivo, sc
[5] = system: STING signaling in HaCaT cells; test: STING downstream signals and inflammatory factors with LPC (18:1) (Western blotting, ELISA); assay type: cell-based, human
Protocol: Since RIFSP‐2 directly restrained SCD1 and modulated neutral lipid droplets, we further investigated whether alteration of lipid profiles by RIFSP‐2 interfered with STING activation in response to irradiation. […] Furthermore, we investigated the influence of RIFSP‐2 on STING‐regulated inflammatory factors, including IFN‐β, TNF‐α, IL‐1, and IL‐6. […] Nevertheless, significant increase of IFN‐β production in acute stage and TNF‐α production in relative late stage (48 h) in macrophage cells were detected through both Western blotting and ELISA assays (Figure 4F,G).
2.6 Protein-protein interaction analysis
The identified databases of specific binding proteins for RIFSP-2 and STING in irradiated skin cells were merged and the confidence score of interactions >0.7 were regarded as high confidence in alinement of STRING database. Finally, the visualization of this protein-protein interaction was realized through the Cytoscape software.
2.7 Assessment of cytokines by Elisa
HaCaT and RAW264.7 cells were cultivated in 6 cm plates at a density of 5 × 10^5 cells/mL with 2 mL medium per well and treated with LPC (18:1) plus RIFSP-2 for 24 h. 6 or 48 h after irradiation, cytokine concentrations in the […] were measured by ELISA according to the instructions provided by the manufacturer (NEOBIOSCIENCE). The absorbance was detected using a BioTek reader (Synergy HTX, Winooski, USA) at 450 nm. […]

CCN(CC)CCCC(C)Nc1ccnc2cc(Cl)ccc12 (stereo not drawn) [CQ, chloroquine]
influence on TBK1 degradation caused by RIFSP-2 ([1]; 10 nM chloroquine 4 hours, then 15 µM RIFSP-2 24 hours): little influence of lysosomes in TBK1 degradation

C=C1[C@@H](C)[C@H]2[C@H](Cc3ccccc3)NC(=O)[C@]23[C@H](OC(C)=O)/C=C/[C@@](C)(O)C(=O)[C@@H](C)C/C=C/[C@H]3[C@@H]1O [CytD, cytochalasin D]
effect on WS1 cells ([2]; after CytD administration in the uptake study): swelled and subsequently died in 30 min

CC(C)C[C@@H](C=O)NC(=O)[C@H](CC(C)C)NC(=O)[C@H](CC(C)C)NC(=O)OCc1ccccc1 [MG132] (Cbz-Leu-Leu-Leu-aldehyde)
influence on the reduction of TBK1 protein level by RIFSP-2 ([1]; 24 h after RIFSP-2 treatment (15 µM), MG132 10 µM pretreated 2 hours): abrogated the reduction of TBK1 protein level

LAAGGYDVDKNNSRLK [RIFSP‐2]
uptake in HaCaT cells [3]: time‐ and dose‐dependent manner
time at which the FITC signal could be detected [2]: as soon as one hour after administration
adverse effects [4]: did not cause obvious adverse effects
histological examination of the skin tissues [4]: no significant differences

LPC (18:1)
accumulation of TGF-β, TNF-α, IL-1 and IL-6 ([5]; keratinocytes but not macrophage cells, Western blotting): aggravated the accumulation
phosphorylation of STING and TBK1 ([5]; supplementation, dose-dependent manner (Figure S5C)): elevated the phosphorylation of both STING and its substrate TBK1
